Measurements from patent publication US20250122173A1, “MODULATORS OF RHO-ASSOCIATED PROTEIN KINASE” (Redx Pharma Limited, priority 2022, published 2025).

How the values were obtained:
ROCK2 = target: T1, ROCK2 (Homo sapiens, UniProt O75116); test: ROCK2 inhibition assay (ADP-Glo kinase assay, called ROCK2 binding activity); assay type: biochemical; settings: 20 μM ATP, 1 hour pre-incubation, read-out: ROCK 2 (IC50 category)
T1 construct: N-terminal 6His-tagged ROCK2 catalytic domain 11-552; 6His (N); purchased Dundee University, UK; host or cells: baculovirus expression system
T1 sequence (O75116 11-552): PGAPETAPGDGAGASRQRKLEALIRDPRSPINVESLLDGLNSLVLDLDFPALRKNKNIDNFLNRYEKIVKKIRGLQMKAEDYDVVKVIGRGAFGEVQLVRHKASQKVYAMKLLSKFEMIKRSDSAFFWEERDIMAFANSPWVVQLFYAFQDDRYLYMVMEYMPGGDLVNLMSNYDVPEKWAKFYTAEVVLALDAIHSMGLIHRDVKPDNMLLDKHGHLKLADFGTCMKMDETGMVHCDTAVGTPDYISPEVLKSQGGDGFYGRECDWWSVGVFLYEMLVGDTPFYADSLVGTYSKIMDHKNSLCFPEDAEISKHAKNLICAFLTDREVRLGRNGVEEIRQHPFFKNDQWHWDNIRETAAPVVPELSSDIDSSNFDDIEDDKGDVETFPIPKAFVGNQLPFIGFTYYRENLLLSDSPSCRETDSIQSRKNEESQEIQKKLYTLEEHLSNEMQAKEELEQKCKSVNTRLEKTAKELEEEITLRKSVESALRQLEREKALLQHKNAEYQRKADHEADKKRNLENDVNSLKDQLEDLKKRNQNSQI
Protocol: ROCK2 Binding Activity: Assay for ROCK2 inhibition was performed using the protein construct N-terminal 6His-tagged ROCK2 catalytic domain 11-552 (Dundee University, UK). Protein was purified from a baculovirus expression system. Long S6 peptide ([…]) was used as substrate. Kinase reactions were carried out in 15 μl volume in a 96-well plate (black, half area) using 1.25 nM constitutively active ROCK2 kinase, 100 μM long S6 peptide, 20 μM ATP and test compound in DMSO (or DMSO only for controls). The final concentration of DMSO was 1%. Assay buffer was 50 mM HEPES pH 7.5 supplemented with 0.2 mM EDTA, 10 mM magnesium acetate, 0.01% Tween-20, 1 mM DTT and 0.01% BSA. Test compounds were pre-incubated with ROCK2 kinase for 1 hour before addition of ATP and long S6 peptide. After incubation for a further 1 hour, the amount of ADP produced was measured using ADP-Glo Kinase Assay (Promega) as per manufacturer's instructions. The luminescence was measured on a PHERAstar FS (BMG Labtech). The concentration of test compound required to inhibit ADP production by 50% (the IC50) was calculated using a four-parameter logistic function with software by Dotmatics. […] The category “+” refers to compounds with a ROCK2 or ROCK1 IC50 value of >10 μM. The category “++” refers to compounds with a ROCK2 or ROCK1 IC50 value of 10 to 3 μM. The category “+++” refers to compounds with a ROCK1 or ROCK2 IC50 value of 3 to 0.3 μM. The category “++++” refers to compounds with a ROCK1 or ROCK2 IC50 value of <0.3 μM.

ROCK1 = ROCK1 (Homo sapiens, UniProt Q13464); test: ROCK1 inhibition assay (ROCK1 binding activity, as determined by the assay described for ROCK2); assay type: biochemical; settings: read-out: ROCK 1 (IC50 category)
ROCK1, sequence (Q13464 whole entry, the tested form may be a part): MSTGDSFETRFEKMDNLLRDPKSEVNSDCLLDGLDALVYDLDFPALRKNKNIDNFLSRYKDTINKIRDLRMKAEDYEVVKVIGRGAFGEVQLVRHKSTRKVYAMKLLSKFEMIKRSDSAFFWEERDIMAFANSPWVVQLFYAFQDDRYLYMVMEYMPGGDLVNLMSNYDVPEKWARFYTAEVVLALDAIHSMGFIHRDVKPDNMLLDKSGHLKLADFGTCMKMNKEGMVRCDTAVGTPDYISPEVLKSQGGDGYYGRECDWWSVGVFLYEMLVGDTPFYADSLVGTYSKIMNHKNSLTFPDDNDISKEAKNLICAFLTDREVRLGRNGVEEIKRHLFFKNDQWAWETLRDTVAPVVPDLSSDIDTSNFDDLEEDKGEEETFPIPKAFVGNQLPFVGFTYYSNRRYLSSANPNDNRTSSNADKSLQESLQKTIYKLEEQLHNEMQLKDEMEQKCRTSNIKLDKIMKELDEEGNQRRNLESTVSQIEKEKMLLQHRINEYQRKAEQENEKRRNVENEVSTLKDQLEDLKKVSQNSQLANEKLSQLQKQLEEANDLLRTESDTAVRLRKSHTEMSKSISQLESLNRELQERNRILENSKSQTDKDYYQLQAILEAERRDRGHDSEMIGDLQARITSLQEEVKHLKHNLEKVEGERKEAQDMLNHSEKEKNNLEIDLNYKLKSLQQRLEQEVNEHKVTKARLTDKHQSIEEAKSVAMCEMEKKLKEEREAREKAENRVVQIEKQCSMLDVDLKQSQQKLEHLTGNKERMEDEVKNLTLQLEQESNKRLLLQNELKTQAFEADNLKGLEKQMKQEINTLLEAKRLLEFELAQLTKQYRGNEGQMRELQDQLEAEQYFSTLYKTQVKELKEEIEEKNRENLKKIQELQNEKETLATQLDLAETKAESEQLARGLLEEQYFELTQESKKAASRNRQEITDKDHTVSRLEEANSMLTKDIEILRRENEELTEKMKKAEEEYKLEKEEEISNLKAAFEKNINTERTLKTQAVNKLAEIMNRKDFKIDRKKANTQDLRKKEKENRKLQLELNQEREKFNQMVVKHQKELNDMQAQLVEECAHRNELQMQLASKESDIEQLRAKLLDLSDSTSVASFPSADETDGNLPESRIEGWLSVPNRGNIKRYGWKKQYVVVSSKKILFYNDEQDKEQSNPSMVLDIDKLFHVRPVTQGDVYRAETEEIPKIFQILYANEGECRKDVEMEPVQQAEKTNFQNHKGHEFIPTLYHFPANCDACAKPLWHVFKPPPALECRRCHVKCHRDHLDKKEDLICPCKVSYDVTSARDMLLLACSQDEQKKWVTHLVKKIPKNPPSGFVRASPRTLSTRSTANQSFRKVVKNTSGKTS
Protocol: Assay for ROCK2 inhibition was performed using the protein construct N-terminal 6His-tagged ROCK2 catalytic domain 11-552 (Dundee University, UK). Protein was purified from a baculovirus expression system. Long S6 peptide ([…]) was used as substrate. Kinase reactions were carried out in 15 μl volume in a 96-well plate (black, half area) using 1.25 nM constitutively active ROCK2 kinase, 100 μM long S6 peptide, 20 μM ATP and test compound in DMSO (or DMSO only for controls). The final concentration of DMSO was 1%. Assay buffer was 50 mM HEPES pH 7.5 supplemented with 0.2 mM EDTA, 10 mM magnesium acetate, 0.01% Tween-20, 1 mM DTT and 0.01% BSA. Test compounds were pre-incubated with ROCK2 kinase for 1 hour before addition of ATP and long S6 peptide. After incubation for a further 1 hour, the amount of ADP produced was measured using ADP-Glo Kinase Assay (Promega) as per manufacturer's instructions. The luminescence was measured on a PHERAstar FS (BMG Labtech). The concentration of test compound required to inhibit ADP production by 50% (the IC50) was calculated using a four-parameter logistic function with software by Dotmatics. […] The category “+” refers to compounds with a ROCK2 or ROCK1 IC50 value of >10 μM. The category “++” refers to compounds with a ROCK2 or ROCK1 IC50 value of 10 to 3 μM. The category “+++” refers to compounds with a ROCK1 or ROCK2 IC50 value of 3 to 0.3 μM. The category “++++” refers to compounds with a ROCK1 or ROCK2 IC50 value of <0.3 μM.

Compound | IC50 (ROCK2) [nM] | IC50 (ROCK1) [µM]
CCn1nc(-c2ccc(-c3ccc(C)cn3)c(C)c2)nc1Nc1ccc2c(c1)CNC2=O [Example 44] | < 300 | > 10
CCn1nc(-c2ccc(-c3ccc(C4CC4)nc3)cc2C)nc1Nc1cc2c(cc1C)C(=O)NC2C (stereo not shown) [Example 56] | < 300 | 3 to 10
CCn1nc(-c2ccc(-c3ccc(C)nc3)cc2)nc1Nc1ccc2c(c1)C(C)NC2=O (stereo not shown) [Example 61] | < 300 | 3 to 10
CCn1nc(-c2ccc(-c3cnc(C)c(C)c3)cc2)nc1Nc1ccc2c(c1)CNC2=O [Example 42] | < 300 | < 0.3
CCn1nc(-c2ccc(-c3cccnc3)cc2)nc1Nc1ccc2c(c1)CNC2=O [Example 29] | < 300 | 3 to 10
CCn1nc(-c2ccc(-c3ccc(C)cn3)c(C)c2)nc1Nc1ccc2c(c1)C(C)NC2=O (stereo not shown) [Example 53] | < 300 | > 10
CCc1cn(-c2ccc(-c3nc(Nc4ccc5c(c4)CNC5=O)n(C)n3)cc2)c(C)n1 [Example 2] | < 300 | > 10
CCn1nc(-c2ccc(-n3cnc(C4CC4)c3)cc2)nc1Nc1ccc2c(c1)C(C)NC2=O (stereo not shown) [Example 21] | < 300 | 3 to 10
CCn1nc(-c2ccc(C3CCC(C)NC3)cc2C)nc1Nc1cc2c(cc1C)C(=O)NC2C (stereo not shown) [Example 155] | 3000 to 10000 | > 10
CCn1nc(-c2cc(C)c(-c3ccc(C)nc3)cc2F)nc1Nc1ccc2c(c1)C(C)NC2=O (stereo not shown) [Example 98] | < 300 | 3 to 10
CCn1nc(-c2cc(C)c(-c3ccc(C)nc3)cc2F)nc1Nc1cc2c(cc1C)C(=O)NC2C (stereo not shown) [Example 83] | < 300 | 3 to 10
CCn1nc(-c2ccc(-c3ccc(C4CC4)nc3)cc2)nc1Nc1ccc2c(c1)C1(CC1)NC2=O [Example 55] | < 300 | > 10
CCn1nc(-c2ccc(C3CCC(C)NC3)cc2)nc1Nc1cc2c(cc1C)C(=O)NC2C (stereo not shown) [Example 148] | > 10000 | > 10
CCn1nc(-c2ccc(-n3cc(C4CC4)nc3C)cc2)nc1Nc1ccc2c(c1)CNC2=O [Example 4] | < 300 | 3 to 10
CCn1nc(-c2ccc(-c3ccn(C)c3)cc2)nc1Nc1cc2c(cc1C)C(=O)NC2C (stereo not shown) [Example 136] | < 300 | 3 to 10
CCn1nc(-c2ccc(C3CCCN(CC(F)(F)F)C3)c(C)c2)nc1Nc1cc2c(cc1C)C(=O)NC2C (stereo not shown) [Example 147] | 300 to 3000 | > 10
CCn1nc(-c2ccc(-c3cc(C)cnc3C)c(C)c2)nc1Nc1cc2c(cc1C)C(=O)NC2C (stereo not shown) [Example 87] | 3000 to 10000 | > 10
CCn1nc(-c2ccc(-c3cnn(CC(F)(F)F)c3)cc2)nc1Nc1cc2c(cc1C)C(=O)NC2C (stereo not shown) [Example 152] | < 300 | 3 to 10
Cc1cc(-c2nc(Nc3ccc4c(c3C)CNC4=O)n(C)n2)ccc1-c1cnc(C2CC2)n1C [Example 12] | 3000 to 10000 | > 10
Cc1nc(C2CC2)cn1-c1ccc(-c2nc(Nc3ccc4c(c3)C(C)(C)NC4=O)n(C)n2)cc1 [Example 17] | 3000 to 10000 | > 10
CCn1nc(-c2cc(C)c(-c3cn(C)c(C4CC4)n3)cc2C)nc1Nc1ccc2c(c1)C(C)NC2=O (stereo not shown) [Example 99] | < 300 | 3 to 10
CCn1nc(-c2ccc(-c3cnn(CC(F)(F)F)c3)cc2)nc1Nc1cc2c(cc1C)C(=O)N[C@H]2C [Example 162] | < 300 | 3 to 10
CCn1nc(-c2ccc(-c3ccc(C)nc3)cc2)nc1Nc1cc2c(cc1C)C(=O)NC2C (single isomer, unassigned) [Example 78] | < 300 | 3 to 10
CCn1nc(-c2ccc(-c3ccc(C)nc3)cc2)nc1Nc1ccc2c(c1)C(F)NC2=O (stereo not shown) [Example 93] | < 300 | 3 to 10
CCn1nc(-c2ccc(-c3ccc(C)nc3)cc2)nc1Nc1ccc2c(c1)CN(C)C2=O [Example 35] | 3000 to 10000 | > 10
CCn1nc(-c2ccc(-c3ccc(C4CC4)nc3)cc2C)nc1Nc1ccc2c(c1)C(C)NC2=O (stereo not shown) [Example 50] | < 300 | > 10
